Measurements as given in patent US20240228482A1, “COMPOUNDS, COMPOSITIONS AND METHODS OF TREATING CANCER” (HOTSPOT THERAPEUTICS, INC., priority 2021, published 2024).

molecular target: T1, CBL-B (Homo sapiens, UniProt Q13191); assay: CBL-B TR-FRET IC50 screening (E1/E2 ubiquitination, Biotin-Ubiquitin, Anti GST-Tb donor / Streptavidin-d2 acceptor); assay type: biochemical; conditions: CBL-B 10 nM final; 11-point titration from 100 uM; binned A-F; read-out: CBL-B TR-FRET activity IC50
T1 construct: GST
T1 sequence (Q13191 whole entry): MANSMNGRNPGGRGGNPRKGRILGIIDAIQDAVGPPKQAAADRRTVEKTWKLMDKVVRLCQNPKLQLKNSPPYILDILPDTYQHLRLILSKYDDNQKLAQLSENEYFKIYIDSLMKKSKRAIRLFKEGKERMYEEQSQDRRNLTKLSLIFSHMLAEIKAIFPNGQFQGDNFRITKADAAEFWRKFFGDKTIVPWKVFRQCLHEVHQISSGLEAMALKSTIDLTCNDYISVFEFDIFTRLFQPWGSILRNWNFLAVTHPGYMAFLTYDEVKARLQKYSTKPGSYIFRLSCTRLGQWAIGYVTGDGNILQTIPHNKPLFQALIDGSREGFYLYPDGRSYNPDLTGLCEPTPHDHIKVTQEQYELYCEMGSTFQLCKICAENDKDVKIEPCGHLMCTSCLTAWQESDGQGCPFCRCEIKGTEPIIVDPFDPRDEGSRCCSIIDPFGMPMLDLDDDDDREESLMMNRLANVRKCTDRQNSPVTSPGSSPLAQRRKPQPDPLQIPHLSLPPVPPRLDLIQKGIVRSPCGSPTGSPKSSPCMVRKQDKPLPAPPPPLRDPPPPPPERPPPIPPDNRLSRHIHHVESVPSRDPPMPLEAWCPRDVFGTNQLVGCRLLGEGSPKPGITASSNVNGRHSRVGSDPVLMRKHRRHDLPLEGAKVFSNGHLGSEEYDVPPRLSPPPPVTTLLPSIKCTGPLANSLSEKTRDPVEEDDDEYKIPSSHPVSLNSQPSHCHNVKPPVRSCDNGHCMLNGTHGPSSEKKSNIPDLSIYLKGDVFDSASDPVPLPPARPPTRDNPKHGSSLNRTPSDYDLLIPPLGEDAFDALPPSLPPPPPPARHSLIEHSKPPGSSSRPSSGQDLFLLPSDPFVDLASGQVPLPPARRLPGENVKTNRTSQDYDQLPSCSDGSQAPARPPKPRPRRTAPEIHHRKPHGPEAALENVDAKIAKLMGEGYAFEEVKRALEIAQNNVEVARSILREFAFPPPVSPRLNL

Row | SMILES | IC50 [nM]
1 | C[C@H]1CCCN(Cc2cc(C(F)(F)F)c3cn(-c4cc(C#N)cc(C5(Cc6nncn6C)COC5)c4)c(=O)n3c2)C1 [Compound 183] | < 100
2 | C[C@H]1CCCN(Cc2cc(C(F)(F)F)c3cn(-c4cccc(N(c5nncn5C)C5CCC5)c4)c(=O)n3c2)C1 [Compound 260] | < 100
3 | O=c1n(-c2cccc(C3(Cc4nnco4)COC3)c2)cc2c(C(F)(F)F)cccn12 [Compound 147] | > 10000
4 | Cn1cnnc1C1(c2cccc(-n3cc4c(C(F)(F)F)cc(Br)cn4c3=O)c2)COC1 [Compound 230] | > 10000
5 | [2H]C([2H])([2H])n1cnnc1C1(c2cccc(-n3cc4c(C(F)(F)F)cc(CN5CCO[C@H](C)C5)cn4c3=O)c2)CC2(CC2)C1 [Compound 118] | < 100
6 | C[C@H]1CCCN(Cc2cc(C(F)(F)F)c3cn(-c4cccc([C@H](c5nncn5C)[C@H]5C[C@@H](CO)C5)c4)c(=O)n3c2)C1 (single isomer, unassigned) [Compound 356] | < 100
7 | O=c1n(-c2cccc(C3(Cc4nncn4C(F)F)COC3)c2)cc2c(C(F)(F)F)cc(CN3CCC4(CC4)C3)cn12 [Compound 91] | < 100
8 | Cn1cnnc1[C@@H](c1cccc(-n2cc3c(C(F)(F)F)cc(CN4CCc5scnc5C4)cn3c2=O)c1)C1CCC1 [Compound 315] | < 100
9 | Cn1cnnc1CC1(c2cccc(-n3cc4c(C(F)(F)F)cc(CN5CC(O)C5)cn4c3=O)c2)COC1 [Compound 61] | 100 to 300
10 | Cc1conc1CC1(c2cccc(-n3cc4c(C(F)(F)F)cc(Br)cn4c3=O)c2)COC1 [Compound 168] | 100 to 300
11 | Cn1cnnc1[C@@H](c1cccc(-n2cc3c(C(F)(F)F)cc(CN4CCN(C=O)CC4)cn3c2=O)c1)C1CCC1 [Compound 340_P2] | 1000 to 3000
12 | C[C@H]1CCCN(Cc2cc(C(F)(F)F)c3cn(-c4cccc([C@]5(c6nncn6C)C[C@@H](C)C5)c4)c(=O)n3c2)C1 (single isomer, unassigned) [Compound 59] | < 100
13 | Cn1cnnc1CC1(c2cccc(-n3cc4c(C(F)(F)F)cc(C(=O)O)cn4c3=O)c2)COC1 [Compound 20] | 3000 to 10000
14 | Cn1cnnc1[C@H](c1cccc(-n2cc3c(C(F)(F)F)cc(CN4CCC(C)(F)CC4)cn3c2=O)c1)C1CCC1 [Compound 160] | 1000 to 3000
15 | Cn1cnnc1CC1(c2cccc(-n3cc4c(C(F)(F)F)cc(CO)cn4c3=O)c2)COC1 (single isomer, unassigned) [Compound 81] | 301 to 1000
16 | CC(C)C[C@H](c1cccc(-n2cc3c(C(F)(F)F)cc(CN4CCC[C@H](C)C4)cn3c2=O)c1)c1nncn1C (single isomer, unassigned) [Compound 151] | 301 to 1000
17 | Cn1cnnc1CC1(c2cccc(-n3cc4c(C(F)(F)F)cc(CN5CCC(C)(F)CC5)cn4c3=O)c2)COC1 [Compound 11] | < 100
18 | CC(c1cc(C(F)(F)F)c2cn(-c3cccc(C4(Cc5nncn5C(F)F)COC4)c3)c(=O)n2c1)N1CCC(F)CC1 (single isomer, unassigned) [Compound 96] | < 100
19 | COC1(C[C@@H](c2cccc(-n3cc4c(C(F)(F)F)cc(CN5CCC[C@H](C)C5)cn4c3=O)c2)c2nncn2C)CC1 (single isomer, unassigned) [Compound 365] | 1000 to 3000
20 | Cn1cnnc1CC1(c2cccc(-n3cc4c(C(F)(F)F)cc(CN5CCC(O)CC5)cn4c3=O)c2)COC1 [Compound 53] | < 100
21 | C[C@H]1CCCN(Cc2cc(C(F)(F)F)c3cn(-c4cccc([C@H](c5nc(C#N)cs5)C5CCC5)c4)c(=O)n3c2)C1 (single isomer, unassigned) [Compound 370] | > 10000
22 | Cc1scnc1[C@H](c1cccc(-n2cc3c(C(F)(F)F)cc(CN4CCC[C@H](C)C4)cn3c2=O)c1)C1CCC1 (single isomer, unassigned) [Compound 282] | > 10000
23 | Cc1c[nH]nc1CC1(c2cccc(-n3cc4c(C(F)(F)F)cc(CN5CCC[C@H](C)C5)cn4c3=O)c2)COC1 [Compound 207] | < 100

same assay, conditions: second part of Table 2 (head 'Patent Cmpd No / Updated Activity'); same CBL-B TR-FRET IC50 bins A-F; read-out: Updated Activity

Row | SMILES | IC50 [nM]
24 | Cn1cnnc1[C@H](c1cc(C#N)cc(-n2cc3c(C(F)(F)F)cc(CN4CC5(CC5)C4)cn3c2=O)c1)C1CCC1 (single isomer, unassigned) [Compound 560] | < 100
25 | CC(=O)N1CC[C@@H](c2cc(C(F)(F)F)c3cn(-c4cccc([C@H](c5nncn5C)C5CCC5)c4)c(=O)n3c2)C1 (single isomer, unassigned) [Compound 422] | < 100
26 | CN1CCCN(Cc2cc(C(F)(F)F)c3cn(-c4cccc([C@H](c5nncn5C)C5CCC5)c4)c(=O)n3c2)C1=O [Compound 482] | < 100
27 | C[C@H]1CCCN(Cc2cc(C(F)(F)F)c3cn(-c4cccc(C5(c6nncs6)CC(C)(C)C5)c4)c(=O)n3c2)C1 [Compound 624] | 301 to 1000
28 | COC[C@H]1C[C@H]([C@@H](c2cccc(-n3cc4c(C(F)(F)F)cc(CN5CCC[C@H](C)C5)cn4c3=O)c2)c2nncn2C)C1 (single isomer, unassigned) [Compound 494] | < 100
29 | C[C@H](c1cc(C(F)(F)F)c2cn(-c3cccc([C@H](c4nncn4C)C4CCC4)c3)c(=O)n2c1)N1CC[C@H](F)C1 (single isomer, unassigned) [Compound 485] | < 100
30 | CO[C@H]1C[C@@](c2cccc(-n3cc4c(C(F)(F)F)cc([C@H](C)N5CC[C@H](F)C5)cn4c3=O)c2)(c2nncn2C)C1 (single isomer, unassigned) [Compound 616] | < 100
31 | Cn1cnnc1C1(c2cccc(-n3cc4c(C(F)(F)F)cc(CN5CCc6ncsc6C5)cn4c3=O)c2)CCC1 [Compound 473] | < 100
32 | C[C@@H]1CCN1Cc1cc(C(F)(F)F)c2cn(-c3cccc([C@H](c4nncn4C)C4CCC4)c3)c(=O)n2c1 [Compound 547] | < 100
33 | Cn1cnnc1[C@@H](c1cccc(-n2cc3c(C(F)(F)F)cc(C(=O)N4CCC(C)(F)CC4)cn3c2=O)c1)C1CCC1 [Compound 430] | 301 to 1000
34 | COCCO[C@H]1CCCN(Cc2cc(C(F)(F)F)c3cn(-c4cccc([C@H](c5nncn5C)C5CCC5)c4)c(=O)n3c2)C1 (single isomer, unassigned) [Compound 518] | < 100
35 | Cn1cnnc1[C@H](c1cc(F)cc(-n2cc3c(C(F)(F)F)cc(CN4CC(F)(F)C4)cn3c2=O)c1)C1CCC1 (single isomer, unassigned) [Compound 619] | > 10000
36 | CO[C@H]1C[C@](c2cccc(-n3cc4c(C(F)(F)F)cc([C@@H](C)N5CCC[C@H](C)C5)cn4c3=O)c2)(c2nncn2C)C1 (single isomer, unassigned) [Compound 604] | < 100
37 | C[C@H]1COCCN1Cc1cc(C(F)(F)F)c2cn(-c3cccc([C@H](c4nncn4C)C4CCC4)c3)c(=O)n2c1 [Compound 488] | < 100
38 | CC(=O)N(C)Cc1cc([C@@H](c2nncn2C)C2CCC2)cc(-n2cc3c(C(F)(F)F)cccn3c2=O)c1 (single isomer, unassigned) [Compound 512] | > 10000
39 | C[C@H]1CCCN([C@H](C)c2cc(C(F)(F)F)c3cn(-c4cccc(C5(c6nncn6C)CCC5)c4)c(=O)n3c2)C1 [Compound 506_P1] | < 100
40 | C[C@H]1CCCN(Cc2cc(C(F)(F)F)c3cn(-c4cccc([C@@H](c5n[nH]cc5C#N)C5CCC5)c4)c(=O)n3c2)C1 [Compound 566] | > 10000
41 | CN1CC[C@]2(CCN(Cc3cc(C(F)(F)F)c4cn(-c5cccc([C@H](c6nncn6C)C6CCC6)c5)c(=O)n4c3)C2)C1=O (single isomer, unassigned) [Compound 621] | < 100
